Measurements taken from patent US10730868B2, “Bicyclic heteroaryl substituted compounds” (BRISTOL-MYERS SQUIBB COMPANY, priority 2016, dated 2020).
pIC50: −log10 of the molar value.

These molecules were tested against PAR4 (Homo sapiens (Human), UniProt Q96RI0) (assay: PAR4 FLIPR assay (antagonism of agonist-peptide-induced calcium mobilization)). Details: H-Ala-Phe(4-F)-[…]NH2-induced intracellular calcium mobilization, PAR4-expressing HEK293 cells; read-out: PAR4 FLTPR assay (IC50).
PAR4, sequence (Q96RI0 18-385): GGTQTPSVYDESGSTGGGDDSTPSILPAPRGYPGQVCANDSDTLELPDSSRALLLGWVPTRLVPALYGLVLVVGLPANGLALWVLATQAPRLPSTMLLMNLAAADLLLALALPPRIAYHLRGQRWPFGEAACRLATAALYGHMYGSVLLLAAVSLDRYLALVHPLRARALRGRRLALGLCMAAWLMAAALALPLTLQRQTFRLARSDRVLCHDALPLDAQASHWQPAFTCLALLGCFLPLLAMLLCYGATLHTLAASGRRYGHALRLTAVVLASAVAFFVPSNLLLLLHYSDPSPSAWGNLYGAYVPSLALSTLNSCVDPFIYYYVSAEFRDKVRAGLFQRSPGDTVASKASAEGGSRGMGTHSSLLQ
Format: cell-based
Description: The Fluorometric Imaging Plate Reader (FLIPR) assay is an exemplary in vitro assay for measuring the activity of the PAR4 antagonists of the present invention. In this assay, intracellular calcium mobilization is induced in PAR4 expressing cells by a PAR4 agonist and calcium mobilization is monitored.
HEK293 cells stably expressing PAR4 were generated by a standard method of transfection of human PAR4 (F2R23) cDNA expression vector and selected based on PAR4 protein expression or mRNA expression. […] These cells also express endogenous PAR1 and can elicit calcium signal upon stimulation with PAR1 agonist peptide. Therefore, the same cells were also used to determine selectivity against PAR1 and agonist activity for both receptors. Cells from HEK293 PAR4 Clone 1.2A (BMS Arctic ID 383940) were propagated and used for calcium mobilization studies.
FLIPR-based calcium mobilization assay in HEK293 cells was used to measure PAR4 antagonism agonism, and selectivity against PAR1. The activity of the PAR4 antagonists of the present invention were tested in PAR4 expressing cells by monitoring H-Ala-Phe(4-F)-[…]NH2-induced intracellular calcium mobilization. Counter screens for agonist activity and PAR1 antagonist activity were also performed. Briefly, PAR/PAR4-expressing HEK293 cells were grown in DMEM (Life Technology, Grand Island, N.Y.) containing 10% heat-inactivated FBS, 1% Penicillin-Streptomycin, 10 μg/mL blasticidin, and 100 μg/mL Zeocin at 37° C. with 5% CO2. Cells were plated overnight prior to the experiment in a black 384-well Purecoat Amine clear bottom plate (Becton Dickinson Biosciences, San Jose, Calif.) at 10,000 cells/well in 30 μL growth medium and incubated in a humidified chamber at 37° C. with 5% CO2 overnight. Prior to compound addition, the cell medium was replaced with 40 μL of 1× calcium and magnesium-containing Hank's Balanced Saline Solution (HBSS) (with 20 mM HEPES) and 1:1000 diluted fluorescent calcium indicator (Codex Biosolutions, Gaithersburg, Md.). After a 30 minute incubation period at 37° C. and a further 30 minute incubation and equilibration period at room temperature, 20 μL test compound (diluted in 1×HBSS buffer) was added at various concentrations at 0.17% dimethyl sulfoxide (DMSO) final concentration. Changes in fluorescence intensity were measured using a Functional Drug Screening System (FDSS, Hamamatsu, Japan) to determine agonist activities. The cells were then incubated for 30 minutes at room temperature followed by addition of 20 μL of agonist peptide for antagonist activity measurement. […] Compound potency was derived from 11-point concentration-response curves.
In the case of `COc1cnc2c(-c3nc4cc(F)c(OC5CC(F)(F)CC[C@@H]5OC(=O)Nc5cnc(C)nc5)cc4s3)cc(C)cc2n1` (mixture of isomers) [Example 7], the pIC50 was 9.17. With `COc1cnc2c(-c3nc4cc(F)c(OC5CC(F)(F)CC[C@@H]5OC(=O)Nc5cnc(OC)nc5)cc4s3)cc(C)cc2n1` (mixture of isomers) [Example 11] the pIC50 was 8.55. `COc1cnc2c(-c3nc4cc(F)c(OC5CC(F)(F)CC[C@@H]5OC(=O)Nc5cncc(C#N)c5)cc4s3)cc(C)cc2n1` (mixture of isomers) [Example 12] showed a pIC50 of 8.24. In the case of `COc1ccc(NC(=O)O[C@H]2CCC(F)(F)CC2Oc2cc3sc(-c4cc(C)cc5nc(OC)cnc45)nc3cc2F)cn1` (mixture of isomers) [Example 14], the pIC50 was 8.62. With `COc1cnc2c(-c3nc4cc(F)c(OC5CCC[C@@H]5O)cc4s3)cc(C)cc2n1` (mixture of isomers) [Example 21, rac-cis-2-((5-fluoro-2-(2-methoxy-7-methylquinoxalin-5-yl)benzo[c]thiazol-6-yl)oxy)cyclopentanol] the pIC50 was 6.33. Work on `COc1ccc(NC(=O)O[C@@H]2CCC[C@H]2Oc2cc3sc(-c4cc(C)cc5nc(OC)cnc45)nc3cc2F)cn1` (racemic) [Example 28] yielded a pIC50 of 7.02. Molecule `COc1ccc(NC(=O)O[C@@H]2CCC[C@@H]2Oc2cc3sc(-c4cc(C)cc5nc(OC)cnc45)nc3cc2F)cn1` (racemic) [Example 33] has a pIC50 of 8.51. Work on `COc1cnc2c(-c3nc4cc(F)c(O[C@H]5CCC[C@H]5OC(=O)Nc5cnc(C)nc5)cc4s3)cc(C)cc2n1` (racemic) [Example 35] yielded a pIC50 of 8.60. `COc1cnc2c(-c3nc4cc(F)c(O[C@H]5CCC[C@H]5OC(=O)Nc5cccnc5)cc4s3)cc(C)cc2n1` (racemic) [Example 38] gave a pIC50 of 8.03. `COc1cnc2c(-c3nc4cc(F)c(O[C@@H]5CCC[C@@H]5OC)cc4s3)cc(C)cc2n1` (racemic) [Example 40, rac-5-fluoro-2-(2-methoxy-7-methylquinoxalin-5-yl)-6-((cis-2-methoxycyclopentyl)oxy)benzo[d]thiazole] was tested, and the pIC50 was 7.08. `COc1cnc2c(-c3nc4cc(F)c(O[C@@H]5CCC[C@H]5O)cc4s3)cc(C)cc2n1` (racemic) [Example 41, rac-trans-2-((5-fluoro-2-(2-methoxy-7-methylquinoxalin-5-yl)benzo[d]thiazol-6-yl)oxy)cyclopentanol] showed a pIC50 of 6.74. Work on `COc1cnc2c(-c3nc4cc(F)c(O[C@@H]5CCC[C@H]5OC)cc4s3)cc(C)cc2n1` (racemic) [Example 42, rac-5-fluoro-2-(2-methoxy-7-methylquinoxalin-5-yl)-6-((trans-2-methoxycyclopentyl)oxy)benzo[d]thiazole] yielded a pIC50 of 6.49. `COc1cnc2c(-c3nc4cc(F)c(O[C@@H]5CCC[C@H]5O)cc4s3)cc(CO)cc2n1` (racemic) [Example 43, rac-trans-2-((5-fluoro-2-(7-(hydroxymethyl)-2-methoxyquinoxalin-5-yl)benzo[d]thiazol-6-yl)oxy)cyclopentanol] was tested, and the pIC50 was 7.66. `COc1cnc2c(-c3nc4cc(F)c(O[C@@H]5CCC[C@@H]5OC(=O)Nc5cccnc5)cc4s3)cc(CO)cc2n1` (racemic) [Example 44, rac-cis-2-((5-fluoro-2-(7-(hydroxymethyl)-2-methoxyquinoxalin-5-yl)benzo[d]thiazol-6-yl)oxy)cyclopentyl pyridin-3-ylcarbamate] gave a pIC50 of 7.60. `COc1cnc2c(-c3nc4cc(F)c(O[C@@H]5CCC[C@@H]5OC(=O)Nc5cncc(C#N)c5)cc4s3)cc(C#N)cc2n1` (racemic) [Example 45, rac-cis-2-((2-(7-cyano-2-methoxyquinoxalin-5-yl)-5-fluorobenzo[d]thiazol-6-yl)oxy)cyclopentyl (5-cyanopyridin-3-yl)carbamate] showed a pIC50 of 8.66. In the case of `COc1cnc2c(-c3nc4cc(F)c(O[C@@H]5CCC[C@@H]5OC(=O)Nc5cnc(C)nc5)cc4s3)cc(C#N)cc2n1` (racemic) [Example 46, rac-cis-2-((2-(7-cyano-2-methoxyquinoxalin-5-yl)-5-fluorobenzo[d]thiazol-6-yl)oxy)cyclopentyl (2-methylpyrimidin-5-yl)carbamate], the pIC50 was 8.70. Molecule `COc1ccc(NC(=O)O[C@@H]2CCCC[C@H]2Oc2cc3sc(-c4cc(C)cc5nc(OC)cnc45)nc3cc2F)cn1` (racemic) [Example 53, rac-trans-2-((5-fluoro-2-(2-methoxy-7-methylquinoxalin-5-yl)benzo[d]thiazol-6-yl)oxy)cyclohexyl (6-methoxypyridin-3-yl)carbamate] has a pIC50 of 7.03. For `COc1cnc2c(-c3nc4cc(F)c(O[C@@H]5CCCC[C@H]5OC(=O)Nc5cnc(C)nc5)cc4s3)cc(C)cc2n1` (racemic) [Example 54, rac-trans-2-((5-fluoro-2-(2-methoxy-7-methylquinoxalin-5-yl)benzo[d]thiazol-6-yl)oxy)cyclohexyl (2-methylpyrimidin-5-yl)carbamate], the pIC50 was 7.89. `COc1cnc2c(-c3nc4cc(F)c(O[C@@H]5CCCC[C@@H]5OC(=O)Nc5cccnc5)cc4s3)cc(C)cc2n1` (racemic) [Example 55, rac-cis-2-((5-fluoro-2-(2-methoxy-7-methylquinoxalin-5-yl)benzo[d]thiazol-6-yl)oxy) cyclohexyl pyridin-3-ylcarbamate] showed a pIC50 of 8.85. Work on `COc1cnc2c(-c3nc4cc(F)c(O[C@@H]5CCCC[C@@H]5OC(=O)Nc5ccncc5)cc4s3)cc(C)cc2n1` (racemic) [Example 56, rac-cis-2-((5-fluoro-2-(2-methoxy-7-methylquinoxalin-5-yl)benzo[d]thiazol-6-yl)oxy) cyclohexyl pyridin-4-ylcarbamate] yielded a pIC50 of 8.74. In the case of `COc1ccc(NC(=O)O[C@H]2CCCC[C@H]2Oc2cc3sc(-c4cc(C)cc5nc(OC)cnc45)nc3cc2F)cn1` (racemic) [Example 57, rac-cis-2-((5-fluoro-2-(2-methoxy-7-methylquinoxalin-5-yl)benzo[d]thiazol-6-yl)oxy) cyclohexyl (6-methoxypyridin-3-yl)carbamate], the pIC50 was 8.21. `COc1cnc2c(-c3nc4cc(F)c(O[C@@H]5CC[C@@H]5OC(=O)Nc5cnc(C)nc5)cc4s3)cc(C)cc2n1` (racemic) [Example 61, rac-cis-2-((5-fluoro-2-(2-methoxy-7-methylquinoxalin-5-yl)benzo[d]thiazol-6-yl)oxy) cyclobutyl (2-methylpyrimidin-5-yl)carbamate] gave a pIC50 of 8.89. Molecule `COc1ccc(NC(=O)O[C@H]2CC[C@H]2Oc2cc3sc(-c4cc(C)cc5nc(OC)cnc45)nc3cc2F)cn1` (racemic) [Example 66] has a pIC50 of 9.10. In the case of `COc1cnc2c(-c3nc4cc(F)c(O[C@@H]5CC[C@@H]5OC(=O)Nc5cnc(OCCO)nc5)cc4s3)cc(C)cc2n1` (racemic) [Example 71], the pIC50 was 8.80. `COc1cnc2c(-c3nc4cc(F)c(O[C@@H]5CC[C@@H]5OC(=O)Nc5cnc(OCCO)nc5)cc4s3)cc(Cl)cc2c1` (racemic) [Example 79] was tested, and the pIC50 was 9.05. For `COc1cnc2c(-c3nc4cc(F)c(O[C@@H]5CC[C@@H]5OC(=O)Nc5cnc(C)nc5)cc4s3)cc(Cl)cc2c1` (racemic) [Example 82], the pIC50 was 8.96. For `COc1cnc2c(-c3nc4cc(F)c(O[C@@H]5CC(C)(C)C[C@@H]5OC(=O)Nc5cnc(C)nc5)cc4s3)cc(C)cc2n1` (racemic) [Example 83], the pIC50 was 8.17. Work on `COc1cnc2c(-c3nc4cc(F)c(O[C@@H]5COC[C@@H]5OC(=O)Nc5cnc(C)nc5)cc4s3)cc(C)cc2n1` (racemic) [Example 86, rac-cis-4-((5-fluoro-2-(2-methoxy-7-methylquinoxalin-5-yl)benzo[d]thiazol-6-yl)oxy) tetrahydrofuran-3-yl (2-methylpyrimidin-5-yl)carbamate] yielded a pIC50 of 8.57. `COc1ccc(NC(=O)O[C@H]2COC[C@H]2Oc2cc3sc(-c4cc(C)cc5nc(OC)cnc45)nc3cc2F)cn1` (racemic) [Example 87, rac-cis-4-((5-fluoro-2-(2-methoxy-7-methylquinoxalin-5-yl)benzo[d]thiazol-6-yl)oxy) tetrahydrofuran-3-yl (6-methoxypyridin-3-yl)carbamate] was tested, and the pIC50 was 8.21. In the case of `COc1ccc(NC(=O)O[C@H]2CCOC[C@H]2Oc2cc3sc(-c4cc(C)cc5nc(OC)cnc45)nc3cc2F)cn1` (racemic) [Example 88, rac-cis-3-((5-fluoro-2-(2-methoxy-7-methylquinoxalin-5-yl)benzoldithiazol-6-yl)oxy)tetrahydro-2H-pyran-4-yl (6-methoxypyridin-3-yl)carbamate], the pIC50 was 7.68.
